Data from patent US20130150376A1, “Novel Sultam Compounds” (PFIZER INC., priority 2010, published 2013).
Where a name gives a salt, the structure may show the parent alone. Read-outs that look alike come from different tables or passages of the source.

Biological target: T1, BACE1 enzyme (soluble, truncated BACE enzyme, BACE1deltaTM96His) (Homo sapiens, UniProt P56817)
T1 construct: soluble, truncated BACE enzyme (BACE1deltaTM96His); His; made in house
Assay: BACE1 Fluorescent Polarization (FP) Assay
Type: biochemical
Details: geometric mean of 2-4 IC50 determinations unless footnoted (^2: 5-6 determinations; ^4: single determination)
Text: BACE1 Fluorescent Polarization (FP) Assay
The fluorescently tagged synthetic substrate, Biotin-GLTNIKTEEISEISŶEVEFR-C[oregon green]KK-OH can be efficiently cleaved by the beta-secretase enzyme and is therefore useful to assay beta-secretase activity in the presence or absence of inhibitory compounds. The his tagged BACE1 enzyme was affinity purified material from conditioned media of CHO-K1 cells that had been transfected to express soluble, truncated BACE enzyme (BACE1deltaTM96His). Compounds were incubated in a ½ log dose response (from a top concentration of 100 μM) with BACE1 enzyme (0.1 nM final) and the biotinylated fluorescent peptide substrate (150 nM final) in assay buffer containing 100 mM sodium acetate, pH 4.5 (brought to pH with acetic acid), and 0.001% Tween-20. Total reaction volumes of 30 μL were carried out in 384-well black plates (Thermo Scientific 4318). Plates were covered and incubated for 3 hours at 37° C. The reactions were then stopped by addition of 30 μL of 1.5 μM Streptavidin (Pierce, 21125). After a 10 minute incubation at room temperature, plates were read on a PerkinElmer Envision for fluorescence polarization (Ex485 nm/Em530 nm). The activity of the beta-secretase enzyme is detected by changes in the fluorescence polarization (Δ mP) that occur when the substrate is cleaved by the enzyme.

[1] = 8-point curve, read-out: BACE activity, 8-point curve, IC50
[2] = 11-point curve, read-out: BACE activity, 11-point curve, IC50

T1 sequence (P56817 46-457): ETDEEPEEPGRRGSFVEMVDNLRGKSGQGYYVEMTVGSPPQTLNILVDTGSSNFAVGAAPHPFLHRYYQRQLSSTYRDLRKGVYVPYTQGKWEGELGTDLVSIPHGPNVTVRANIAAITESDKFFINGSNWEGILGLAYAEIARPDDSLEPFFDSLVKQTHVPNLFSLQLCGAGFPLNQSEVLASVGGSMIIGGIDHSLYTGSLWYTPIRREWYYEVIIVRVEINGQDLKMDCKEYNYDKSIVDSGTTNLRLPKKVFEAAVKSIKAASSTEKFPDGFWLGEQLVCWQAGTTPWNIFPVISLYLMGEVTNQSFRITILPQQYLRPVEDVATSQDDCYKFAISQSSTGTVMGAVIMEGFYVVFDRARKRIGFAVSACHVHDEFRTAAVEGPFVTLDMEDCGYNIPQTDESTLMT

| SMILES | IC50 [1] [nM] | IC50 [2] [nM] |
| --- | --- | --- |
| CC(C)Oc1cc(CN2CC[C@]3(C=CS(=O)(=O)N3c3ccc(F)c(F)c3)C[C@@H]2C)ccc1O [Example 67, 4-{[(5R,7S)-1-(3,4-difluorophenyl)-7-methyl-2,2-dioxido-2-thia-1,8-diazaspiro[4.5]dec-3-en-8-yl]methyl}-2-isopropoxyphenol] | 59.3 | 429 |
| C[C@H]1C[C@]2(CCN1Cc1ncoc1C1CCCO1)CCS(=O)(=O)N2c1cccc(F)c1 (mixture of isomers) [Example 80, (5R,7S)-1-(3-fluorophenyl)-7-methyl-8-{[5-(tetrahydrofuran-2-yl)-1,3-oxazol-4-yl]methyl}-2-thia-1,8-diazaspiro[4.5]decane 2,2-dioxide] | – | 6460 |
| C[C@H]1C[C@@]2(C=CS(=O)(=O)N2c2cccc(F)c2)CCN1Cc1ccc(O)c(C(F)(F)F)c1 [Example 16, 4-{[(5R,7S)-1-(3-fluorophenyl)-7-methyl-2,2-dioxido-2-thia-1,8-diazaspiro[4.5]dec-3-en-8-yl]methyl}-2-(trifluoromethyl)phenol, hydrochloride salt] | 322 | – |
| CC(C)Oc1cccc(CN2CC[C@@]3(C[C@@H]2C)C(O)CS(=O)(=O)N3c2cccc(F)c2)c1 (stereo partly drawn) [Example 65, (5R,7S)-1-(3-fluorophenyl)-8-(3-isopropoxybenzyl)-7-methyl-2-thia-1,8-diazaspiro[4.5]decan-4-ol 2,2-dioxide] | – | 3160 |
| C[C@H]1C[C@@]2(C=CS(=O)(=O)N2c2cccc(F)c2)CCN1Cc1ccc(O)c(Cl)c1 [Example 15, 2-chloro-4-{[(5R,7S)-1-(3-fluorophenyl}-7-methyl-2,2-dioxido-2-thia-1,8-diazaspiro[4.5]dec-3-en-8-yl]methyl}phenol, hydrochloride salt] | 754 | 478 |
| CC(C)Oc1cc(CN2CC[C@]3(CCS(=O)(=O)N3c3cccc(F)c3)C[C@@H]2C)ncc1O [Example 3, 6-{[(5R,7S)-1-(3-Fluorophenyl)-7-methyl-2,2-dioxido-2-thia-1,8-diazaspiro[4.5]dec-8-yl]methyl}-4-isopropoxypyridin-3-ol] | 81.5 | 613 |
| Cc1ccsc1-c1ocnc1CN1CC[C@]2(C=CS(=O)(=O)N2c2cccc(F)c2)C[C@@H]1C [Example 37, (5R,7S)-1-(3-fluorophenyl)-7-methyl-8-{[5-(3-methyl-2-thienyl)-1,3-oxazol-4-yl]methyl}-2-thia-1,8-diazaspiro[4.5]dec-3-ene 2,2-dioxide] | 1820 | 2840 |
| Cc1scnc1-c1cc(CN2CC[C@]3(C=CS(=O)(=O)N3c3cccc(F)c3)C[C@@H]2C)ccc1O [Example 73, 4-{[(5R,7S)-1-(3-fluorophenyl)-7-methyl-2,2-dioxido-2-thia-1,8-diazaspiro[4.5]dec-3-en-8-yl]methyl}-2-(5-methyl-1,3-thiazol-4-yl)phenol, ammonium sail] | 2.44 | 44.5 |
| Cc1scnc1-c1cc(CN2CC[C@]3(CCS(=O)(=O)N3c3cnccn3)C[C@@H]2C)ccc1O [Example 89, 4-{[(5R,7S)-7-methyl-2,2-dioxido-1-(pyrazin-2-yl)-2-thia-1,8-diazaspiro[4.5]dec-8-yl]methyl}-2-(5-methyl-1,3-thiazol-4-yl)phenol] | 64.9 | 1230 |
| Cc1csnc1-c1cc(CN2CC[C@]3(C=CS(=O)(=O)N3c3cccc(F)c3)C[C@@H]2C)ccc1O [Example 72, 4-{[(5R,7S)-1-(3-fluorophenyl)-7-methyl-2,2-dioxido-2-thia-1,8-diazaspiro[4.5]dec-3-en-8-yl]methyl}-2-(4-methyl-1,2-thiazol-3-yl)phenol, trifluoroacetic acid salt] | 0.97 | 24.3 |
| CCOc1cc(CN2CC[C@]3(C=CS(=O)(=O)N3c3cccc(F)c3)C[C@@H]2C)ccc1O [Example 27, 2-ethoxy-4-{[(5R,7S)-1-(3-fluorophenyl)-7-methyl-2,2-dioxido-2-thia-1,8-diazaspiro[4.5]dec-3-en-8-yl]methyl}phenol] | 116 | 269 |
| Cc1csnc1-c1cc(CN2CC[C@]3(CCS(=O)(=O)N3c3cnccn3)C[C@@H]2C)ccc1O [Example 88, 4-{[(5R,7S)-7-methyl-2,2-dioxido-1-(pyrazin-2-yl)-2-thia-1,8-diazaspiro[4.5]dec-8-yl]methyl}-2-(4-methylisothiazol-3-yl)phenol] | – | 457 |
| C[C@H]1C[C@@]2(C=CS(=O)(=O)N2c2cccc(F)c2)CCN1Cc1ccc(O)c(F)c1 [Example 18, 2-fluoro-4-{[(5R,7S)-1-(3-fluorophenyl)-7-methyl-2,2-dioxido-2-thia-1,8-diazaspiro[4.5]dec-3-en-8-yl]methyl}phenol, hydrochloride salt] | 1.86 | – |
| Cc1csnc1-c1cc(CN2CC[C@]3(CCS(=O)(=O)N3c3ccccn3)C[C@@H]2C)ccc1O [Example 91, 4-{[(5R,7S)-7-methyl-2,2-dioxido-1-(pyridin-2-yl)-2-thia-1,8-diazaspiro[4.5]dec-8-yl]methyl}-2-(4-methylisothiazol-3-yl)phenol] | – | 763 |
| C[C@H]1C[C@@]2(C=CS(=O)(=O)N2c2cccc(F)c2)CCN1Cc1ccc(O)c(C2CCCC2)c1 [Example 7, 2-cyclopentyl-4-{[(5R,7S)-1-(3-fluorophenyl)-7-methyl-2,2-dioxido-2-thia-1,8-diazaspiro[4.5]dec-3-en-8-yl]methyl}phenol] | 21.9 | – |
| C[C@H]1C[C@]2(CCN1Cc1ncoc1-c1cncs1)CCS(=O)(=O)N2c1cccc(F)c1 [Example 60, (5R,7S)-1-(3-fluorophenyl)-7-methyl-8-{[5-(1,3-thiazol-5-yl)-1,3-oxazol-4-yl]methyl}-2-thia-1,8-diazaspiro[4.5]decane 2,2-dioxide, hydrochloride salt] | – | 6540 |
| Cc1ccncc1-c1cccc(CN2CC[C@]3(C=CS(=O)(=O)N3c3cccc(F)c3)C[C@@H]2C)c1 [Example 39, (5R,7S)-1-(3-fluorophenyl)-7-methyl-8-[3-(4-methylpyridin-3-yl)benzyl]-2-thia-1,8-diazaspiro[4.5]dec-3-ene 2,2-dioxide, hydrochloride salt] | 79.5 | 414 |
| C[C@H]1C[C@]2(CCN1Cc1ccc(O)c(C3CCCO3)c1)CCS(=O)(=O)N2c1cccc(F)c1 (mixture of isomers) [Example 61, 4-{[(5R,7S)-1-(3-fluorophenyl)-7-methyl-2,2-dioxido-2-thia-1,8-diazaspiro[4.5]dec-8-yl]methyl}-2-(tetrahydrofuran-2-yl)phenol] | < 30.5 | – |
| C[C@H]1C[C@@]2(C=CS(=O)(=O)N2c2cccc(F)c2)CCN1Cc1ccc2[nH]ccc2c1 [Example 41, (5R,7S)-1-(3-fluorophenyl)-8-(1H-indol-5-ylmethyl)-7-methyl-2-thia-1,8-diazaspiro[4.5]dec-3-ene 2,2-dioxide] | 703 | 2380 |
| C[C@H]1C[C@]2(CCN1Cc1ccc(O)c(C3CCC3)c1)CCS(=O)(=O)N2c1cnccn1 [Example 87, 2-cyclobutyl-4-{[(5R,7S)-7-methyl-2,2-dioxido-1-(pyrazin-2-yl)-2-thia-1,8-diazaspiro[4.5]dec-8-yl]methyl}phenol] | – | 2670 |
| CCc1ccccc1-c1cc(CN2CC[C@]3(C=CS(=O)(=O)N3c3cccc(F)c3)C[C@@H]2C)ccc1O [Example 6, 2′-ethyl-5-{[(5R,7S)-1-(3-fluorophenyl)-7-methyl-2,2-dioxido-2-thia-1,8-diazaspiro[4.5]dec-3-en-8-yl]methyl}biphenyl-2-ol] | < 4.2 | – |
| Cc1ncsc1-c1ocnc1CN1CC[C@]2(CCS(=O)(=O)N2c2cccc(F)c2)C[C@@H]1C [Example 59, (5R,7S)-1-(3-fluorophenyl)-7-methyl-8-{[5-(4-methyl-1,3-thiazol-5-yl)-1,3-oxazol-4-yt]methyl}-2-thia-1,8-diazaspiro[4.5]decane 2,2-dioxide, hydrochloride salt] | – | 8820 |
| Cc1ncccc1-c1ocnc1CN1CC[C@]2(C=CS(=O)(=O)N2c2cccc(F)c2)C[C@@H]1C [Example 76, (5R,7S)-1-(3-fluorophenyl)-7-methyl-8-{[5-(2-methylpyridin-3-yl)-1,3-oxazol-4-yl]methyl}-2-thia-1,8-diazaspiro[4.5]dec-3-ene 2,2-dioxide] | 705 | 2970 |
| CC(C)Oc1cccc(CN2CC[C@@]3(C[C@@H]2C)C(=O)CS(=O)(=O)N3c2cccc(F)c2)c1 [Example 81, (5R,7S)-1-(3-fluorophenyl)-8-(3-isopropoxybenzyl)-7-methyl-2-thia-1,8-diazaspiro[4.5]decan-4-one 2,2-dioxide] | – | 5720 |
| C[C@H]1C[C@@]2(C=CS(=O)(=O)N2c2cccc(F)c2)CCN1Cc1scnc1-c1cncnc1 [Example 43, (5R,7S)-1-(3-fluorophenyl)-7-methyl-8-[(4-pyrimidin-5-yl-1,3-thiazol-5-yl)methyl]-2-thia-1,8-diazaspiro[4.5]dec-3-ene 2,2-dioxide] | 975 | 8250 |
